Measured values as given in patent US6066642A, “Dihydropyridine-, pyridine-, benzopyran-4-one- and triazoloquinazoline derivative, their preparation and their use as adenosine receptor antagonists” (priority 1998, dated 2000).
Like-named read-outs stand apart in the source and are kept apart here. One block for each compound: values may come before it.

Key:
[1] = molecular target: T1, A2a receptors (Rattus norvegicus, UniProt P30543); experiment: radioligand binding, displacement of specific [3H]CGS 21680 binding in rat striatal membranes; conditions: for inhibition at 100 µM: 10^-4 M; for Ki: [3H]CGS 21680, rat striatal membranes
T1 construct: Displacement of specific [^3 H]; from tissue; host or cells: rat striatal membranes
Procedure: ^b Displacement of specific [^3 H]
or as a percentage of specific binding displaced at 100 μM.

[2] = molecular target: T2, A1 receptors (Rattus norvegicus, UniProt P25099); experiment: biochemical; type: binding; conditions: for inhibition at 100 µM: 10^-4 M, read-out: displacement of specific binding rA1; for Ki: rat brain membranes
T2 sequence (P25099 1-326): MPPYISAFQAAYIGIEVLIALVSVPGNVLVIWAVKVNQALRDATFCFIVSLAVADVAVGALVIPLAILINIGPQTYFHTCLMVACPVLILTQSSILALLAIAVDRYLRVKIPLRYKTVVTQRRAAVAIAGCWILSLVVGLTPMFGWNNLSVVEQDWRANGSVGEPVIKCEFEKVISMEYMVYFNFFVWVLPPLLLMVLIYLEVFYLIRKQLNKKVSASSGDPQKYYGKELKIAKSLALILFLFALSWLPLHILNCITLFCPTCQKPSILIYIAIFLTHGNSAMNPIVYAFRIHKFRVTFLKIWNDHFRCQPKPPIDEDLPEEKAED
Procedure: ^a Displacement of specific [^3 H] PIA binding in rat brain
percentage of specific binding displaced at 100 μM.

[3] = molecular target: T3, human A3 receptors (Homo sapiens, UniProt P0DMS8); experiment: radioligand binding, displacement of specific [125I]AB-MECA binding at human A3 receptors expressed in HEK-293 cells; conditions: for Ki: [125I]AB-MECA, read-out: Ki hA3; for inhibition at 100 µM: 10^-4 M
T3 construct: expressed in transfected cells; host or cells: HEK-293 cells (membranes)
T3 sequence (P0DMS8 1-318): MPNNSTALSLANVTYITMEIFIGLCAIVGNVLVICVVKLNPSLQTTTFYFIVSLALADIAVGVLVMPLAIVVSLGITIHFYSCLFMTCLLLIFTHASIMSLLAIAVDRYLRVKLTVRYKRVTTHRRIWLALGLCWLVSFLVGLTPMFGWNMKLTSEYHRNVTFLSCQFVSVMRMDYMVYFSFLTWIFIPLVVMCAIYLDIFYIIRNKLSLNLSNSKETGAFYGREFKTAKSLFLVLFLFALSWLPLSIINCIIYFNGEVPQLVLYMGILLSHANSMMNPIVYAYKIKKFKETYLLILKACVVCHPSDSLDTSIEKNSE
Procedure: A3 receptors expressed in HEK293 cells, in membranes, expressed as
binding displaced at 100 μM.

[4] = molecular target: T4, rat A3 receptor (Rattus norvegicus, UniProt P28647); experiment: A3-agonist-elicited inhibition of adenylyl cyclase in membranes from CHO cells stably expressing the rat A3 receptor; type: biochemical; conditions: compound 50 μM, 1 μM forskolin
T4 construct: expressed in transfected cells; host or cells: CHO cells (membranes)
T4 sequence (P28647 1-320): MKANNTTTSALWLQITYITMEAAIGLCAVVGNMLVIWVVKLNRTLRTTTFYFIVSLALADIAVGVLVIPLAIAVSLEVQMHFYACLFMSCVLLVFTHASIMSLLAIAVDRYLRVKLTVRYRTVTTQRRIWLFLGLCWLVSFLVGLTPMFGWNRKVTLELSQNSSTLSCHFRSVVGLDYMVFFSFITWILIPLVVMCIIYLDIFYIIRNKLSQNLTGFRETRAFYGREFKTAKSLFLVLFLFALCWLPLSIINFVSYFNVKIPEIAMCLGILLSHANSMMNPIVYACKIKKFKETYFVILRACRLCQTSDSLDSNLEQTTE
Procedure: ^a Assayed in membranes from CHO cells stably expressing the rat
A3 receptor in the presence of 1 μM forskolin.

[5] = tested on: bak protein in U-937 cells; experiment: expression of apoptosis-inducing protein bak by immunofluorescence, U-937 cells; type: cell-based; conditions: 10 nM
Procedure: (§1) Cells were fixed as following steps: 10 min with 1% formalin in PBS, 5 min with […] methanol and 2 min with ice cold acetone, then permebilized with 0.1% Nonidet P-40 for 20 min. After the preparation, the specimens were incubated step by step: 10% goat serum in PBS for 20 min, mouse monoclonal anti-bak antibody (5 μg/ml PBS-BSA) for 60 min, Rhodamine (TRITC)-conjugated AffiniPure Goat Anti-mouse IgG (H+L) in PBS-BSA for 60 min. The specimens were washed 3-5 times with PBS after every step. The glass slides were stored at 4° C. in the dark.
(§2) The mechanism of the apoptosis observed in response to either A3 agonists was investigated.

[6] = tested on: bak protein in HL-60 cells; experiment: expression of apoptosis-inducing protein bak by immunofluorescence, HL-60 cells; type: cell-based; conditions: 10 nM
Procedure: as §1, §2

[7] = IB-MECA 10^-6 M, read-out: % Inhibition of adenylyl cyclase, IB-MECA (10^-6 M)
[8] = IB-MECA 10^-7 M, read-out: % Inhibition of adenylyl cyclase, IB-MECA (10^-7 M)
[9] = Table 3, [3H]PIA, read-out: Ki rA1
[10] = Table 7, read-out: displacement of specific binding rA2A
[11] = Table 7, [3H]PIA, read-out: Ki (rA1)
[12] = Table 7, read-out: displacement of specific binding hA3
[13] = Table 15, [3H]PIA, read-out: Ki rA1

T1 sequence (P30543 whole entry): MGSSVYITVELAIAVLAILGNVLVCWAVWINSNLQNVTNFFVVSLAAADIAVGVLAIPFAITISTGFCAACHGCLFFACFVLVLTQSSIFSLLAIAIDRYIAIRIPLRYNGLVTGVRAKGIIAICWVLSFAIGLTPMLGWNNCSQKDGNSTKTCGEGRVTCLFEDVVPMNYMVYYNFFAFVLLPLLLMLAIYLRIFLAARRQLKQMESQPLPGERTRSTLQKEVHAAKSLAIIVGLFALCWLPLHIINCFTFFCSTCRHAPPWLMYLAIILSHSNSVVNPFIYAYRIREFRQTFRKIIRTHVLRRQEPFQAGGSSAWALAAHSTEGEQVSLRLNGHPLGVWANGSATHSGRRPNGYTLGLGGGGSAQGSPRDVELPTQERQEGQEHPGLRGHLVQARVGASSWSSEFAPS

SMILES: COc1ccc2c(c1)C(=O)[C@H](O)[C@@H](/C=C/c1ccccc1)O2 (relative stereo) [Compound 15]
- inhibition at 100 µM ([1]; Table 4, read-out: displacement of specific binding rA2a): < 10%
- inhibition at 100 µM ([2]; Table 4): < 10%
- rA1/hA3 [3]: > 8
- Ki ([3]; Table 4, HEK-293 membranes): 21100 nM
- inhibition at 50 µM [4, 7]: 39.2 ± 3%
- inhibition at 50 µM [4, 8]: 25.9 ± 2.4%

SMILES: O=c1c(O)c(-c2ccccc2)oc2cc(O)cc(O)c12 [Compound 1, galangin, reference compound]
- Ki ([1]; Table 3, read-out: Ki rA2a): 966 ± 164 nM
- Ki [2, 9]: 863 ± 92 nM
- inhibition at 50 µM [4, 7]: 35.3 ± 7.2%
- inhibition at 50 µM [4, 8]: 23.7 ± 5.1%

SMILES: CCOc1cc(OCC)c2c(=O)c(OCC)c(-c3ccccc3)oc2c1 [Compound 3a, 3,5,7-Triethoxyflavone]
- Ki ([1]; Table 3, read-out: Ki rA2a): 3310 nM
- Ki [2, 9]: 603 nM
- inhibition at 50 µM [4, 7]: 19.1 ± 7.4%
- inhibition at 50 µM [4, 8]: 2.2 ± 2.2%

SMILES: CCOc1c2ccoc2cc2oc(/C=C/c3ccccc3)cc(=O)c12 [Compound 20, 4-ethyloxy-7-trans-styryl-visnagin]
- Ki ([1]; Table 5, read-out: Ki rA2a): 33800 ± 14800 nM
- Ki ([2]; Table 5, [3H]PIA, read-out: Ki rA1): 35600 ± 12700 nM
- inhibition at 50 µM [4, 7]: 40.9 ± 3.7%
- inhibition at 50 µM [4, 8]: 21.2 ± 3.9%

SMILES: Oc1cc2c(cc1O)[C@@H]1c3ccc(O)c(O)c3OC[C@]1(O)C2 [Compound 50, hematoxylin, reference compound]
- inhibition at 100 µM ([1]; Table 7, read-out: % of specific binding displaced rA2A): 28 ± 2%
- Ki [2, 11]: 3100 ± 600 nM
- inhibition at 100 µM [3, 12]: < 10%

SMILES: COc1cc2c(c(O)c1OC)c(=O)c1ccccc1n2C [Compound 51, 1-hydroxy-2,3-dimethoxy-10-methyl-9(10H)-acridinone, reference compound]
- Ki ([1]; Table 7, read-out: Ki (rA2A)): 6470 ± 1900 nM
- Ki [2, 11]: 12700 ± 1200 nM
- inhibition at 100 µM ([3]; Table 7, read-out: % of specific binding displaced hA3): 63 ± 7%

SMILES: CCC(=O)Nc1nc2ccc(Cl)cc2c2nc(-c3ccco3)nn12 [Compound 146, 9-Chloro-2-(2-furyl)-5-propionylamino[1,2,4]triazolo[1,5-c]quinazoline]
- Ki ([1]; Table 15, read-out: Ki rA2A): 106 ± 30 nM
- Ki [2, 13]: 283 ± 42 nM
- Ki ([3]; Table 15, HEK membranes): 7.66 ± 3.03 nM
- rA1/hA3 ([3]; Table 15, ratio of Ki): 40
- rA2A/hA1 ([3]; Table 15, ratio of Ki): 14

SMILES: CCCC(=O)Nc1nc2ccc(Cl)cc2c2nc(-c3ccco3)nn12 [Compound 147, 5-Butyrylamino-9-chloro-2-(2-furyl)[1,2,4]triazolo[1,5-c]quinazoline]
- Ki ([1]; Table 15, read-out: Ki rA2A): 4 nM
- Ki [2, 13]: 32.5 ± 9.4 nM
- rA1/hA3 [3]: 2.2
- Ki ([3]; Table 15, HEK membranes): 14.6 ± 2.8 nM

SMILES: CCCCC(=O)Nc1nc2ccc(Cl)cc2c2nc(-c3ccco3)nn12 [Compound 148, 9-Chloro-2-(2-furyl)-5-pentanoylamino[1,2,4]triazolo[1,5-c]quinazoline]
- Ki ([1]; Table 15, read-out: Ki rA2A): 16 nM
- Ki [2, 13]: 28.9 ± 3.7 nM
- Ki ([3]; Table 15, HEK membranes): 21.5 ± 6.2 nM
- rA1/hA3 ([3]; Table 15, ratio of Ki): 1.3

SMILES: CC(C)(C)C(=O)Nc1nc2ccc(Cl)cc2c2nc(-c3ccco3)nn12 [Compound 149, 9-Chloro-2-(2-furyl)-5-trimethylacetylamino[1,2,4]triazolo [1,5-c]quinazoline]
- Ki ([1]; Table 15, read-out: Ki rA2A): 60 nM
- Ki [2, 13]: 205 ± 20 nM
- Ki ([3]; Table 15, HEK membranes): 244 ± 6 nM
- rA1/hA3 ([3]; Table 15, ratio of Ki): 0.84

SMILES: O=C(Nc1nc2ccc(Cl)cc2c2nc(-c3ccco3)nn12)c1ccccc1 [Compound 151, 5-Benzoylamino-9-chloro-2-(2-furyl)[1,2,4]triazolo[1,5-c]quinazoline]
- Ki ([1]; Table 15, read-out: Ki rA2A): 349 ± 42 nM
- Ki [2, 13]: 665 ± 82 nM
- Ki ([3]; Table 15, HEK membranes): 4.05 ± 1.39 nM
- rA1/hA3 ([3]; Table 15, ratio of Ki): 164
- rA2A/hA1 ([3]; Table 15, ratio of Ki): 86

More lines, main results first:

- inhibition at 100 µM [1, 10]: < 10%
- Ki [2, 11]: 5550 ± 830 nM
- inhibition at 100 µM [3, 12]: < 10%
SMILES: COc1cc2c3c(c1)c1cc4c(cc1c(=O)n3CC2)OCO4 [Compound 47, oxogalanthine lactam, reference compound]

- inhibition at 100 µM [1, 10]: < 10%
- Ki [2, 11]: 52500 ± 3700 nM
- inhibition at 100 µM [3, 12]: < 10%
SMILES: COC1C=CC23c4cc5c(cc4C[N+](C)(CC2OC(C)=O)C3C1)OCO5 (stereo not shown) [Compound 48, acetylhaemanthine methiodide, reference compound]

- Ki ([1]; Table 9, read-out: Ki rA2A): 38300 ± 7900 nM
- Ki ([2]; Table 9, [3H]PIA, read-out: Ki rA1): 5390 ± 330 nM
- Ki ([3]; Table 9, HEK membranes): 940 ± 700 nM
SMILES: CCOC(=O)C1=C(C)NC(C)=C(C(=O)OC)C1C#Cc1ccccc1 (stereo not shown) [Compound 76]
- greater affinity to A1 than A2a adenosine receptors ([2]; selectivity in words): greater affinity to A1 adenosine receptors than A2a receptors
- greater affinity for A3 than A1 or A2a adenosine receptors ([3]; selectivity in words): greater affinity for A3 adenosine receptors than A1 or A2a adenosine receptors

- Ki ([1]; Table 10, read-out: Ki rA2a): 8960 ± 930 nM
- Ki ([2]; Table 10, [3H]PIA, read-out: Ki rA1): 6950 ± 2660 nM
- Ki ([3]; Table 10, HEK membranes): 29500 ± 2100 nM
SMILES: CCOC(=O)c1c(C)nc(C)c(C(=O)OC)c1C [Compound 80]

- inhibition at 100 µM ([1]; Table 10, read-out: displacement of specific binding rA2a): < 10%
- inhibition at 100 µM ([2]; Table 10): < 10%
- inhibition at 100 µM ([3]; Table 10, read-out: displacement of specific binding hA3): < 10%
SMILES: COC(=O)c1c(C)nc(C)c(C(=O)OC)c1-c1ccccc1[N+](=O)[O-] [Compound 82, reference compound]

- Ki ([1]; Table 15, read-out: Ki rA2A): 52 ± 8.8 nM
- Ki [2, 13]: 305 ± 51 nM
SMILES: O=C(Cc1ccccc1)Nc1nc2ccc(Cl)cc2c2nc(-c3ccco3)nn12 [Compound 153, 9-Chloro-2-(2-furyl)-5-phenylacetylamino[1,2,4]triazolo [1,5-c]quinazoline]
- expression of bak protein, U-937 [5]: induced
- expression of bak protein, HL-60 [6]: induced

- Ki ([1]; Table 15, read-out: Ki rA2A): 173 nM
- Ki [2, 13]: 91.3 ± 13.2 nM
- Ki ([3]; Table 15, HEK membranes): 32 nM
SMILES: CC(C)(C)OC(=O)NCCCC(=O)Nc1nc2ccc(Cl)cc2c2nc(-c3ccco3)nn12 [Compound 154]

- Ki ([1]; Table 15, read-out: Ki rA2A): 14 nM
- Ki [2, 13]: 11.3 ± 2.4 nM
- Ki ([3]; Table 15, HEK membranes): 15.2 ± 6.6 nM
SMILES: NCCCC(=O)Nc1nc2ccc(Cl)cc2c2nc(-c3ccco3)nn12 [Compound 155]

- Ki ([1]; Table 15, read-out: Ki rA2A): > 1000 nM
- Ki [2, 13]: > 1000 nM
- Ki ([3]; Table 15, HEK membranes): 856 ± 156 nM
SMILES: O=C(Nc1nc2ccc(Cl)cc2c2nc(-c3ccc(Br)o3)nn12)c1ccccc1 [Compound 156]

- Ki ([1]; Table 15, read-out: Ki rA2A): 4000 nM
- Ki [2, 13]: 3000 nM
- Ki ([3]; Table 15, HEK membranes): 260 ± 87 nM
SMILES: O=c1[nH]c2ccc(Cl)cc2c2nc(-c3ccco3)nn12 [Compound 158, 9-Chloro-2-(2-furyl)[1,2,4]triazolo[1,5-c]quinazolin-5-(6H)-one]

- Ki ([1]; Table 16, read-out: Ki rA2A): 59.8 ± 13.4 nM
- Ki ([2]; Table 16, [3H]R-PIA, read-out: Ki rA1): 282 ± 71 nM
- Ki ([3]; Table 16, HEK membranes): 60 ± 6.3 nM
SMILES: O=C(C=Cc1ccccc1)Nc1nc2ccc(Cl)cc2c2nc(-c3ccco3)nn12 [Compound 161]
